Results taken from patent US20250268980A1, “AN ANTICANCER THERAPY TARGETING RAS AND OTHER ONCOGENIC SIGNALS BY INHIBITION OF DYNAMIC BLEBBING AND/OR SEPTINS” (THE BOARD OF REGENTS OF THE UNIVERSITY OF TEXAS SYSTEM, priority 2022, published 2025).

Experiments:
[1] = system: ERK; experiment: ERK activity assay with ERK-nKTR-GFP biosensor in MV3 cells; type: cell-based, human
Procedure: Detached/Adhered Cell Culture. […] Drug treatments, solvent-only controls, or CellEvent caspase activity sensor were added to suspensions if appropriate to the experiment, and then immediately transferred to both an uncoated (for detached cells) and ibiTreated (for adhered cells) 8-well ibidi u-slide (ibidi cat #80821 and 80826) at 200 μl/well. Both slides were stored at 37° C. and 5% CO2 for either 24 hours (hrs) for viability assays, 3 hrs for ERK activity assays or 4 hours for caspase activation assays. Uncoated slides (detached) were nutated at 20 rpm during this time. […]
Viability, ERK Activity, and Caspase ActivityCell Counting Assays. Viability, ERK activity, and caspase activity assays were analyzed using live-cell fluorescent and phase-contrast microscopy, performed on a Nikon Ti microscope equipped with an environmental chamber held at 37° C. and 5% CO2 at 20× magnification. […] Live and dead cells (as identified by significant cellular ethidium signal) were counted using the Cell Counter ImageJ plugin. For ERK activity assays, live cells carrying ERK-nKTR-GFP and H2B-mCherry were imaged after 3 hours of experimental conditions and high/low ERK activity cells were counted with Cell Counter ImageJ plugin. […] Caspase positive and negative cells (as identified by significant cellular CellEvent signal) were counted using the Cell Counter ImageJ plugin.

[2] = system: PI3K; experiment: PI3K activity with Akt-PH-GFP biosensor in MV3 cells; type: cell-based, human; conditions: rounded, poorly-adhered MV3 cells
Procedure: Cells Embedded in 3D Collagen.
Cells Grown in VitroGel Coffins. VitroGel coffins were prepared by embedding MV3 or A375 cells in VitroGel 3D or RGD at 1:1 dilution according to manufacturer's instructions (TheWell Biosciences, sku #TWG001). […] A 1:1 solution of VitroGel and VitroGel Dilution Solution was made and added to cell suspension at a ratio of 4:1 (VitroGel: cells) using gentle pipetting until well-mixed (with care taken not to form bubbles). Cell/VitroGel solution was transferred to an 8-well uncoated ibidi μ-slide (ibidi cat #80821) at 100 μl/well, spread over the bottom of wells with a pipette tip, and allowed to polymerize at room temperature for 15 minutes. […]
Cortical septin levels were quantified by measuring the mean cytoplasmic intensity of each cell using hand-drawn ROIs that excluded nuclei (performed with the FIJI ImageJ package), and then calculating for each cell its fraction of cortical voxels (intracellular voxels within 0.96 μm of the u-Shape3D-derived surface) that were higher than that cell's mean cytoplasmic intensity (performed using a MATLAB script). […] To quantify PI3K biosensor fluorescence signal, cells were segmented with u-shape3D and the intracellular signal was summed across the z-axis to yield a sum projection image (performed with the FIJI ImageJ package). […]

For `O=C(Nc1ccccc1)Nc1ccnc(Cl)c1` [FCF, forchlorfenuron], the ERK signaling ([1]; adhered MV3, 3 hours of FCF) was “no difference in ERK signaling compared to controls”, the ERK activation ([1]; detached MV3, 3 hours of FCF) was “significantly reduced” and the PI3K activity [2] was “PI3K activity fell significantly”.
